Test results as given in publication PMC3465515 (Nuclear medicine and biology, 2012).
Where two headings read alike, the source gives them in different places.

Experiments:
[1] = biological target: human ERβ (Homo sapiens, UniProt Q92731); test: competitive radiometric binding assay with [3H]estradiol, ERβ; details: for β/α ratio: ratio of RBA ERβ to RBA ERα
[2] = biological target: T1, human ERα (Homo sapiens, UniProt P03372); test: competitive radiometric binding assay with [3H]estradiol, ERα
T1 sequence (P03372 1-595): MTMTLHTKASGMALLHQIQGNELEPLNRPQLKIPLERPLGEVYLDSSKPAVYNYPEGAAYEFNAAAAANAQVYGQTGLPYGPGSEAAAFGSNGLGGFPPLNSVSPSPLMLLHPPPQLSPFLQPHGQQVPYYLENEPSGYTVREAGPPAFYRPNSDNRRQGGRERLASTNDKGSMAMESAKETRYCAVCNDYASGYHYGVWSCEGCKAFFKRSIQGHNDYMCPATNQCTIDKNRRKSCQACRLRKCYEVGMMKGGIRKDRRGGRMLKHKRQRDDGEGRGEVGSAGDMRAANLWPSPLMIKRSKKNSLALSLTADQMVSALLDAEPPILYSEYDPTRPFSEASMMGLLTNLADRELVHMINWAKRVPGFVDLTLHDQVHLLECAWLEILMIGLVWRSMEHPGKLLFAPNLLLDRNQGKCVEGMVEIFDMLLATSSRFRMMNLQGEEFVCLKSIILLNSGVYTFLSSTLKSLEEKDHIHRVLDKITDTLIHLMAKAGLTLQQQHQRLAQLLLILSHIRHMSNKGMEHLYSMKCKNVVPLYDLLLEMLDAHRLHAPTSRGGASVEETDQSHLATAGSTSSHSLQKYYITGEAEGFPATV

[3] = estradiol = 100, purified full-length human ERβ, 18-24 h at 0 °C
[4] = estradiol = 100, purified full-length human ERα, 18-24 h at 0 °C

Sequence of human ERβ (Q92731 whole entry): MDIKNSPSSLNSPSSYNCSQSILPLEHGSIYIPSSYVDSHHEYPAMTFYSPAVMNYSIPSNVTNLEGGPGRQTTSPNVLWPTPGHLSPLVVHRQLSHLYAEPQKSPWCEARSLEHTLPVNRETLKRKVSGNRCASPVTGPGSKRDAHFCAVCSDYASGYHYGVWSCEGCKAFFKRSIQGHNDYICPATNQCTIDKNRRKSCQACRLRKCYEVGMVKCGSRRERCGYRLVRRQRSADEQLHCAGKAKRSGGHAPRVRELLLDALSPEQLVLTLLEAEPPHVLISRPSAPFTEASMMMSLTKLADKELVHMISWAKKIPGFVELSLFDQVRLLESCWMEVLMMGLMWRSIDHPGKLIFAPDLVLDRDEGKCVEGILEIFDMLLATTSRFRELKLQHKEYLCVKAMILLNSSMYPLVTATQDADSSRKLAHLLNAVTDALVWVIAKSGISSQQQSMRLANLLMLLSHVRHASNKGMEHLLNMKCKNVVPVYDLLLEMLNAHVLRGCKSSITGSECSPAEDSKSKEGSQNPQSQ

| Relative Binding Affinity (RBA) ERβ [1] [%] | Relative Binding Affinity (RBA) ERα [2] [%] | SMILES | β/α ratio [1] | Relative Binding Affinity (RBA) ERβ [1, 3] [%] | Relative Binding Affinity (RBA) ERα [2, 4] [%] | fold lower affinity than parent 8BVE2, ERβ ([1]; vs 8β-vinylestradiol) [fold] | fold lower affinity than parent 8BVE2, ERα ([2]; vs 8β-vinylestradiol) [fold] |
| --- | --- | --- | --- | --- | --- | --- | --- |
| 3.22 ± 0.91 | 0.007 ± 0.001 | C=Cc1cc(O)cc2nc(-c3ccc(O)c(F)c3)oc12 [ERB-041] | 460 | – | – | – | – |
| – | – | N#C[C@H](c1ccc(O)cc1)[C@@H](CCF)c1ccc(O)cc1 [FEDPN] | 20 | 8.74 ± 1.87 | 0.43 ± 0.09 | – | – |
| – | – | C=C[C@@]12CCc3cc(O)ccc3[C@H]1CC[C@@]1(C)[C@H]2CC[C@@H]1O [compound 1, 8β-Vinyl-estra-1,3,5(10)-triene-3,17β-diol] | 350 | 105 | 0.30 | – | – |
| – | – | C[C@]12CC[C@@H]3c4ccc(O)cc4CC[C@@]3(CCF)[C@@H]1CC[C@@H]2O [compound 6, 8β-(2-Fluoroethyl)estra-1,3,5(10)-trien-3,17β-diol] | 179 | 8.27 ± 0.98 | 0.046 ± 0.005 | ~10 | ~10 |
